ChEMBL document CHEMBL1201862, “PubChem BioAssay data set” (2004)
“And” between values parts separate entries of the source, which are not always exact repeats. Identical values can stand only once.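 Where inhibition never reached the appropriate level, the endpoint shown equals the highest concentration tested. Otherwise, values were interpolated linearly from a five-concentration, 48-hour dose response in 96-well plates. At the GI50, growth is halved.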 The source made the active and inactive calls. No stated cut-off is given here; in the data, active = GI50 up to about 1.1 µM and inactive = higher.

How the values were obtained:
Assay in all cases: inhibition of tumour cell growth, NCI panel, 48 h
A498 = system: A498
CCRF-CEM = system: CCRF-CEM
EKVX = system: EKVX
HL-60 = system: HL-60
KM12 = system: KM12
MOLT-4 = system: MOLT-4
NCI-H522 = system: NCI-H522
RXF 393 = system: RXF 393
SK-OV-3 = system: SK-OV-3
SNB-19 = system: SNB-19
SR = system: SR
TK-10 = system: TK-10
U-251 = system: U-251
UO-31 = system: UO-31
CAKI-1 = system: CAKI-1
SNB-75 = system: SNB-75

Measured: GI50

Nc1ncnc2c1ncn2C1CC(OCc2ccccc2[N+](=O)[O-])C(CO)O1 (stereo not given)
inactive: A498 > 50 µM | CCRF-CEM 16.7 µM | EKVX 33 µM | HL-60 12.7 µM | KM12 20 µM | MOLT-4 18.4 µM | NCI-H522 13.7 µM | RXF 393 5.38 µM | SK-OV-3 21.7 µM | SNB-19 46.1 µM | SR 10.8 µM | TK-10 30.8 µM | U-251 24.2 µM | UO-31 17 µM

COc1ccc(/C=c2/sc3n(c2=O)NC(c2ccc(Cl)cc2)NN=3)cc1 (stereo not given)
inactive: CAKI-1 > 100 µM | CCRF-CEM > 100 µM | EKVX > 100 µM | KM12 > 100 µM | MOLT-4 > 100 µM | NCI-H522 > 100 µM | RXF 393 > 100 µM | SK-OV-3 > 100 µM | SNB-19 > 100 µM | SNB-75 23.1 µM | SR > 100 µM | TK-10 > 100 µM | U-251 > 100 µM | UO-31 > 100 µM

COc1cc2cc[n+]3c4cc(OC)c(OC)cc4c(C)cc3c2cc1OC
inactive: CAKI-1 > 100 µM | CCRF-CEM > 100 µM | EKVX > 100 µM | HL-60 > 100 µM | KM12 > 100 µM | MOLT-4 > 100 µM | NCI-H522 > 100 µM | SK-OV-3 > 100 µM | SNB-19 29.3 µM | SNB-75 44.7 µM | SR > 100 µM | TK-10 > 100 µM | U-251 70 µM | UO-31 > 100 µM

Nc1nnc2c(-c3ccccc3)n[nH]c2n1
inactive: A498 12.9 µM | CAKI-1 17 µM | CCRF-CEM 18.5 µM | EKVX 5.9 µM | HL-60 9.4 µM | KM12 23.2 µM | MOLT-4 21.7 µM | NCI-H522 > 100 µM | RXF 393 34.1 µM | SNB-19 57.1 µM | SR 27.4 µM | TK-10 23 µM | UO-31 28.2 µM

O=C(O)c1[nH]c(C(=O)O)c(CC(F)(F)C(F)(F)C(F)(F)F)c1CC(F)(F)C(F)(F)C(F)(F)F
inactive: A498 > 100 µM | CAKI-1 > 100 µM | CCRF-CEM > 100 µM | EKVX > 100 µM | HL-60 > 100 µM | KM12 > 100 µM | NCI-H522 > 100 µM | RXF 393 > 100 µM | SK-OV-3 > 100 µM | SNB-19 > 100 µM | SNB-75 > 100 µM | TK-10 > 100 µM | U-251 > 100 µM | UO-31 > 100 µM

O=[N+]([O-])c1ccc(Cl)cc1C1SCc2nc3ccccc3n21 (stereo not given)
inactive: A498 23.6 µM | CAKI-1 33 µM | CCRF-CEM 34.8 µM | EKVX 69.7 µM | HL-60 31 µM | KM12 41.9 µM | MOLT-4 36.3 µM | NCI-H522 24.4 µM | RXF 393 26.6 µM | SK-OV-3 62.8 µM | SNB-19 74.6 µM | SNB-75 16.3 µM | TK-10 87.5 µM | U-251 40.4 µM | UO-31 22.1 µM

COC(=O)CC(C(C(C)=O)C(=O)OCc1ccccc1)N1C(=O)OC(c2ccccc2)C1c1ccccc1 (stereo not given)
inactive: CAKI-1 81.1 µM and 83.4 µM | CCRF-CEM 72.4 µM and 73.8 µM | EKVX 64.4 µM | HL-60 37.7 µM and 32.2 µM | KM12 42 µM and 35.6 µM | MOLT-4 36.4 µM and 42.3 µM | NCI-H522 38.3 µM and 22.9 µM | SK-OV-3 > 100 µM | SR 42.7 µM and 42.5 µM | TK-10 > 100 µM | U-251 96.6 µM and 75.5 µM
